Source: paper PMC7337905, “Nitrosative stress inhibits aminoacylation and editing activities of mitochondrial threonyl-tRNA synthetase by S-nitrosation” (Nucleic Acids Research, 2020)
Substitutions are numbered along the chain they refer to.

Columns and labels:
Assay type in all cases: biochemical
hmtThrRS [1] = biological target: T1, hmtThrRS (Homo sapiens, UniProt Q9BW92, C185S/C409S/C506S); assay: tRNA aminoacylation and posttransfer editing, […]tRNA TLC, after preincubation; conditions: covalent (S-nitrosation); 1 mM GSNO preincubation; C603 mutant (only Cys603 kept of the four sites)
T1 construct: gene TARS2; mature form Leu20-Phe718, 699 residues, pET28, Ni-NTA, E. coli BL21(DE3), no reducing agent, dimer
T1 sequence (Q9BW92 20-718 C185S/C409S/C506S): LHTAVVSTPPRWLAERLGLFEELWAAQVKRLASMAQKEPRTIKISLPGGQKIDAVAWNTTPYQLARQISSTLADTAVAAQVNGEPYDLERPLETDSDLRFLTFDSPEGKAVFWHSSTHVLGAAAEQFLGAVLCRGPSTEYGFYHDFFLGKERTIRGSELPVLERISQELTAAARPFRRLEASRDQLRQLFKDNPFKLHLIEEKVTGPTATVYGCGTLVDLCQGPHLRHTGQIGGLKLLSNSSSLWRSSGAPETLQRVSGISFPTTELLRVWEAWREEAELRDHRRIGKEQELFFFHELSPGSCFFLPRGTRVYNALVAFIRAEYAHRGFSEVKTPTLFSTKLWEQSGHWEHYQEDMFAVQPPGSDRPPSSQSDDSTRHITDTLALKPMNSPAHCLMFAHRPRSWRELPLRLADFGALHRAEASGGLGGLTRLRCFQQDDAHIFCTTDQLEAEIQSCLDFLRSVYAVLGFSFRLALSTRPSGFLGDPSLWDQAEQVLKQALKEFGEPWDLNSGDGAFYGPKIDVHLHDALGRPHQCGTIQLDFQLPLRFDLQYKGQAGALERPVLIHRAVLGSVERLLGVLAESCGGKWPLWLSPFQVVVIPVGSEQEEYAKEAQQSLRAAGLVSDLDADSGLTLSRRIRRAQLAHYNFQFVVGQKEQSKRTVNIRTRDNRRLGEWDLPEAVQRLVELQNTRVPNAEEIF

hmtThrRS [2] = biological target: T2, hmtThrRS (Homo sapiens, UniProt Q9BW92, C409S/C506S/C603S); assay: as above; conditions: covalent (S-nitrosation); 1 mM GSNO preincubation; C185 mutant (only Cys185 kept of the four sites)
T2 construct: gene TARS2; mature form Leu20-Phe718, 699 residues, pET28, Ni-NTA, E. coli BL21(DE3), no reducing agent, dimer
T2 sequence (Q9BW92 20-718 C409S/C506S/C603S): T1 sequence (Q9BW92 20-718 C185S/C409S/C506S) with S166C, C584S

hmtThrRS [3] = biological target: T3, hmtThrRS (Homo sapiens, UniProt Q9BW92); assay: tRNA aminoacylation and mischarging, […]tRNA TLC, after preincubation; IBP-MS of modified Cys; conditions: covalent (S-nitrosation, reversed by DTT); 1 uM enzyme preincubated with 1 or 5 mM GSNO, 37 C; pH 7.5, 10 mM MgCl2
T3 construct: gene TARS2; mature form Leu20-Phe718, 699 residues, pET28, Ni-NTA, E. coli BL21(DE3), no reducing agent, dimer
T3 sequence (Q9BW92 20-718): T1 sequence (Q9BW92 20-718 C185S/C409S/C506S) with S166C, S390C, S487C

hmtThrRS [4] = biological target: T4, hmtThrRS (Homo sapiens, UniProt Q9BW92, C185S/C506S/C603S); assay: tRNA aminoacylation and posttransfer editing, […]tRNA TLC, after preincubation; conditions: covalent (S-nitrosation); 1 mM GSNO preincubation; C409 mutant (only Cys409 kept of the four sites)
T4 construct: gene TARS2; mature form Leu20-Phe718, 699 residues, pET28, Ni-NTA, E. coli BL21(DE3), no reducing agent, dimer
T4 sequence (Q9BW92 20-718 C185S/C506S/C603S): T1 sequence (Q9BW92 20-718 C185S/C409S/C506S) with S390C, C584S

hmtThrRS [5] = biological target: T5, hmtThrRS (Homo sapiens, UniProt Q9BW92, C185S/C409S/C603S); assay: as above; conditions: covalent (S-nitrosation); 1 mM GSNO preincubation; C506 mutant (only Cys506 kept of the four sites)
T5 construct: gene TARS2; mature form Leu20-Phe718, 699 residues, pET28, Ni-NTA, E. coli BL21(DE3), no reducing agent, dimer
T5 sequence (Q9BW92 20-718 C185S/C409S/C603S): T1 sequence (Q9BW92 20-718 C185S/C409S/C506S) with S487C, C584S

hmtThrRS [6] = biological target: T3, hmtThrRS; assay: tRNA mischarging, […]tRNA TLC; conditions: noncognate; 100 mM Ser, E. coli tRNA-Thr, 10 mM MgCl2, pH 7.5
hmtThrRS [7] = biological target: T3, hmtThrRS; assay: tRNA aminoacylation, […]tRNA TLC; ATP-PPi exchange; conditions: 1 mM Thr, 10 uM E. coli tRNA-Thr, 10 mM MgCl2, pH 7.5
EcThrRS = biological target: T6, EcThrRS (Escherichia coli, UniProt P0A8M3); assay: tRNA aminoacylation, […]tRNA TLC; conditions: 1 mM Thr, E. coli tRNA-Thr, 10 mM MgCl2, pH 7.5
T6 construct: gene thrS; purified enzyme, construct not described in main text
T6 sequence (P0A8M3 whole entry): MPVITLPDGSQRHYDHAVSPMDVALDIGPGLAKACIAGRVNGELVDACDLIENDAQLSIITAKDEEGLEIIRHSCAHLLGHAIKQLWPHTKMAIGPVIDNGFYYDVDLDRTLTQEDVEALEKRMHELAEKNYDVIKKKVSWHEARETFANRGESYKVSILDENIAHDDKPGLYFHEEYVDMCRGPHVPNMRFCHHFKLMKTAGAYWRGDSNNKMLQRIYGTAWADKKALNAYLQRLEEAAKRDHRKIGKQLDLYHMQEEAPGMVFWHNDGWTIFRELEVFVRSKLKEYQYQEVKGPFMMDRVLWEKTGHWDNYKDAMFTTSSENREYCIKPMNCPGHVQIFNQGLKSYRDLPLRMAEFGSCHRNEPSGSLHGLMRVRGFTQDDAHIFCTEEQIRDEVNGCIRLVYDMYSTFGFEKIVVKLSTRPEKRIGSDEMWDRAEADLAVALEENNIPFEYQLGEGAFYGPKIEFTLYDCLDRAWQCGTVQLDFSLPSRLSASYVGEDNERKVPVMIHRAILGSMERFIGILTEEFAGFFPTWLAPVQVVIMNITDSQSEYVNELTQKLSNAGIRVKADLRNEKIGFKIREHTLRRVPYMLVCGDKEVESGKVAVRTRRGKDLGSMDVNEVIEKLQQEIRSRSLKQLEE

## N[C@@H](CCC(=O)N[C@@H](CSN=O)C(=O)NCC(=O)O)C(=O)O [GSNO, S-nitrosoglutathione]
hmtThrRS [1]
  tRNA aminoacylation and posttransfer editing, [32P]tRNA TLC, after preincubation: Both activities for the four mutants were obviously inhibited after GSNO incubation
hmtThrRS [2]
  tRNA aminoacylation and posttransfer editing, [32P]tRNA TLC, after preincubation: Both activities for the four mutants were obviously inhibited after GSNO incubation
hmtThrRS [3]
  tRNA aminoacylation and mischarging, [32P]tRNA TLC, after preincubation; IBP-MS: The resulting inhibition of both the aminoacylation and mischarging activities of hmtThrRS was dose-dependent
hmtThrRS [4]
  tRNA aminoacylation and posttransfer editing, [32P]tRNA TLC, after preincubation: the inhibitory effect of GSNO on the C409 mutant was the most prominent
hmtThrRS [5]
  tRNA aminoacylation and posttransfer editing, [32P]tRNA TLC, after preincubation: Both activities for the four mutants were obviously inhibited after GSNO incubation

## N[C@@H](CO)C(=O)O [Ser, L-Ser]
hmtThrRS [6]
  tRNA mischarging, [32P]tRNA TLC: mischarging of tRNA^Thr with noncognate Ser was determined without or with H2O2 treatment

## C[C@@H](O)[C@H](N)C(=O)O [Thr, L-Thr]
hmtThrRS [7]
  tRNA aminoacylation, [32P]tRNA TLC; ATP-PPi exchange: The synthesis of Thr-tRNA^Thr was obviously not affected by H2O2
EcThrRS
  tRNA aminoacylation, [32P]tRNA TLC: aminoacylation activity of EcThrRS was assayed and compared
